The values below come from PubChem BioAssay AID200 (DTP/NCI, 2004).

Values joined by “and” are separate entries in the source; they are usually repeats but may differ in a detail not shown here. Identical values can stand only once. Toxic doses and inconclusive results are not listed. *1 amine or outer side, *2 acyl side, *3 side chain or, on linkers, in order; H or OH if unused. Where a SMILES comes first, the peptide text is derived from it. [ ]: non-standard residue; d: D form. The star is where a group is joined. X3 = CCC(=O)CC1CC(C)CC(C(=O)[*:2])N1[*:1]; X2 = CCCCCCCCC(C)C(=O)*; Cbz = O=C(OCc1ccccc1)*; Nva = CCC[CH](N)C(=O)O; Aib = CC(C)(N)C(=O)O; X4 = CC(CN(C)CCO)N*

This experiment has as its system B6C3F1 mice, B16 melanoma ip, median survival T/C. Nature of the experiment: NCI In Vivo Anticancer Drug Screen. Data for tumor model B16 Melanoma (intraperitoneal) in B6C3F1 mice. As to conditions: endpoint: median survival time, schedule: Q01DX009 (ip), higher = longer survival. The procedure, abridged:
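Readout: survival or tumor size in treated mice relative to vehicle controls (T/C). Model uses transplantable tumors grown in mice.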

The mark [1] stands for this setting: dose: 25.0 mg/kg/injection, vehicle: saline.
[2] abbreviates: dose: 50.0 mg/kg/injection, vehicle: saline.
[3] abbreviates: dose: 100.0 mg/kg/injection, vehicle: saline.
[4] abbreviates: dose: 200.0 mg/kg/injection, vehicle: saline.
Where [5] appears, read: dose: 3.12 mg/kg/injection, vehicle: other.
Where [6] appears, read: dose: 50.0 mg/kg/injection, vehicle: Klucel (hydroxypropylcellulose) (HPC).
Where [7] appears, read: dose: 100.0 mg/kg/injection, vehicle: Klucel (hydroxypropylcellulose) (HPC).
The mark [8] stands for this setting: dose: 200.0 mg/kg/injection, vehicle: Klucel (hydroxypropylcellulose) (HPC).
[9] abbreviates: dose: 1.25 mg/kg/injection, vehicle: Klucel (hydroxypropylcellulose) (HPC).
Setting [10] is: dose: 2.5 mg/kg/injection, vehicle: Klucel (hydroxypropylcellulose) (HPC).
Where [11] appears, read: dose: 5.0 mg/kg/injection, vehicle: Klucel (hydroxypropylcellulose) (HPC).

For `O=c1[nH]cnc2c1nnn2C1OC(CO)C(O)C1O` (stereo not drawn), the T/C was 96 % of control and 101 % of control under setting [1]; 116 % of control and 92 % of control under setting [2]; 104 % of control under setting [3]; 100 % of control under setting [4].

As for `CCC1=C[C@H]2CN(CCc3c([nH]c4ccccc34)[C@@](C(=O)OC)(c3cc4c(cc3OC)N(C)[C@H]3[C@@](O)(C(=O)NN)[C@H](O)[C@]5(CC)C=CCN6CC[C@]43[C@@H]65)C2)C1`, the T/C by setting is: (dose: 15.62 micrograms/kg/injection, vehicle: water) 116 % of control; (dose: 31.25 micrograms/kg/injection, vehicle: water) 119 % of control; (dose: 125.0 micrograms/kg/injection, vehicle: water) 167 % of control; (dose: 250.0 micrograms/kg/injection, vehicle: water) 166 % of control; (dose: 500.0 micrograms/kg/injection, vehicle: water) 176 % of control.

As for `CC(=O)Oc1ccc2c3c1O[C@H]1[C@@H](OC(C)=O)C=C[C@H]4[C@@H](C2)N(C)CC[C@@]341`, the T/C runs as follows: (dose: 0.5 mg/kg/injection, vehicle: saline) 101 % of control; (dose: 1.0 mg/kg/injection, vehicle: saline) 93 % of control; (dose: 2.0 mg/kg/injection, vehicle: saline) 90 % of control; (dose: 4.0 mg/kg/injection, vehicle: saline) 100 % of control; (dose: 8.0 mg/kg/injection, vehicle: saline) 98 % of control; (dose: 16.0 mg/kg/injection, vehicle: saline) 86 % of control. Further, the T/C (dose: 32.0 mg/kg/injection, vehicle: saline) was 93 % of control; the T/C (dose: 64.0 mg/kg/injection, vehicle: saline) is 102 % of control; the T/C (dose: 128.0 mg/kg/injection, vehicle: saline) is 110 % of control.

With `COc1oc(C2C/C(=C/C(C)=C/C(C)=C/C(C)=C/c3ccc([N+](=O)[O-])cc3)CO2)c(C)c(=O)c1C` (stereo not drawn), the T/C was 96 % of control (dose: 0.25 mg/kg/injection, vehicle: saline with Tween-80); 98 % of control (dose: 0.5 mg/kg/injection, vehicle: saline with Tween-80); 99 % of control (dose: 1.0 mg/kg/injection, vehicle: saline with Tween-80); 103 % of control (dose: 2.0 mg/kg/injection, vehicle: saline with Tween-80).

Consider `C[C@@H]1CN(C(=O)CCOS(C)(=O)=O)[C@@H](C)CN1C(=O)CCOS(C)(=O)=O`, for which the T/C under setting [4] was 172 % of control.

`CC(=O)Nc1ccc(/C=N/NC(N)=S)cc1`: the T/C runs as follows: (dose: 25.0 mg/kg/injection, vehicle: saline with Tween-80) 93 % of control; (dose: 50.0 mg/kg/injection, vehicle: saline with Tween-80) 97 % of control; (dose: 100.0 mg/kg/injection, vehicle: saline with Tween-80) 90 % of control; (dose: 200.0 mg/kg/injection, vehicle: saline with Tween-80) 88 % of control; (dose: 400.0 mg/kg/injection, vehicle: saline with Tween-80) 92 % of control.

For `C[CH2][Sn]([CH2]C)([CH2]C(=O)OC)[CH2]C(=O)OC`, the T/C (dose: 1.56 mg/kg/injection, vehicle: saline with Tween-80) is 95 % of control; the T/C (dose: 3.12 mg/kg/injection, vehicle: saline with Tween-80) is 107 % of control; the T/C (dose: 6.25 mg/kg/injection, vehicle: saline with Tween-80) was 90 % of control.

In the case of `CC(=O)CC(=O)CCC(=O)O`, the T/C is 97 % of control under setting [1], 97 % of control under setting [2] and 93 % of control under setting [3].

For the molecule `CC(C)[NH-].CC(C)[NH-].[Cl][Pt+2][Cl]`, the T/C is, setting by setting: (dose: 1.56 mg/kg/injection, vehicle: other) 122 % of control; under setting [5], 120 % of control.

As for `CNC(=O)OCc1c(COC(=O)NC)c(C)n(-c2ccc(OC)cc2)c1C`, the T/C (dose: 3.12 mg/kg/injection, vehicle: Klucel (hydroxypropylcellulose) (HPC)) was 112 % of control and the T/C under setting [6] was 111 % of control.

As to `CCCC(NC(=O)OCc1ccccc1)C(=O)NC(Cc1ccccc1)C(N)=O` (stereo not drawn) (Cbz-[Nva]-Phe-NH2; configuration not given here), the T/C is 101 % of control under setting [7]; 91 % of control under setting [8]; 89 % of control (dose: 400.0 mg/kg/injection, vehicle: Klucel (hydroxypropylcellulose) (HPC)).

Take `C[C@@H]1C[C@@H]([C@H](O)CC2CC(=O)NC(=O)C2)C(=O)[C@@H](C)C1`: the T/C is 105 % of control (dose: 12.5 mg/kg/injection, vehicle: saline); 111 % of control under setting [1]; 106 % of control under setting [2].

On to `C[C@@](O)(/C=C/[C@H]1CC=CC(=O)O1)[C@@H](C[C@@H](O)\C=C/C=C\C=C\CO)OP(=O)(O)O`, for which the T/C is, setting by setting: under setting [5], 98 % of control and 105 % of control; (dose: 6.25 mg/kg/injection, vehicle: other) 110 % of control and 102 % of control; (dose: 12.5 mg/kg/injection, vehicle: other) 101 % of control and 103 % of control; (dose: 25.0 mg/kg/injection, vehicle: other) 99 % of control.

Regarding `CCCCCCCCC(C)C(=O)N1CCCC1C(=O)N1C(CC(=O)CC)CC(C)CC1C(=O)NC(C)C(=O)NC(C)(C)C(=O)NC(C)(C)C(=O)NC(C(=O)NC(C)C(=O)NC(C)(C)C(=O)NC(C)(C)C(=O)NC(C)CN(C)CCO)C(C)CC` (stereo not drawn) (X2-P[X3]A[Aib][Aib]IA[Aib][Aib]-X4; configuration not given here), the T/C (dose: 0.15 mg/kg/injection, vehicle: Klucel (hydroxypropylcellulose) (HPC)) is 98 % of control; the T/C (dose: 0.31 mg/kg/injection, vehicle: Klucel (hydroxypropylcellulose) (HPC)) is 91 % of control; the T/C (dose: 0.62 mg/kg/injection, vehicle: Klucel (hydroxypropylcellulose) (HPC)) is 97 % of control; the T/C under setting [9] is 89 % of control; the T/C under setting [10] is 92 % of control; the T/C under setting [11] was 86 % of control.

As to `OCC(O)C(O)C(O)C(O)CO` (stereo not drawn), the T/C is 107 % of control (dose: 75.0 mg/kg/injection, vehicle: saline); 104 % of control (dose: 150.0 mg/kg/injection, vehicle: saline); 112 % of control (dose: 300.0 mg/kg/injection, vehicle: saline); 112 % of control (dose: 600.0 mg/kg/injection, vehicle: saline); 98 % of control (dose: 1200.0 mg/kg/injection, vehicle: saline).

Regarding `NC(=O)CCC(N)C(=O)O` (stereo not drawn), the T/C was 105 % of control under setting [1]; 108 % of control under setting [2]; 103 % of control under setting [3]; 100 % of control under setting [4]; 108 % of control (dose: 400.0 mg/kg/injection, vehicle: saline).

Turning to `CC(C)(C)NC(C1=CC(C)(C)c2ccccc2C1=O)c1ccccc1` (stereo not drawn), the T/C is 99 % of control under setting [6], 88 % of control under setting [7] and 98 % of control under setting [8].

With `Cc1cc(NCCN(C(C)C)C(C)C)nc(/N=C(\N)Nc2ccc(Cl)c(C(F)(F)F)c2)n1`, the T/C reads like this: under setting [9], 111 % of control; under setting [10], 106 % of control; under setting [11], 100 % of control; (dose: 10.0 mg/kg/injection, vehicle: Klucel (hydroxypropylcellulose) (HPC)) 86 % of control; (dose: 20.0 mg/kg/injection, vehicle: Klucel (hydroxypropylcellulose) (HPC)) 96 % of control; (dose: 40.0 mg/kg/injection, vehicle: Klucel (hydroxypropylcellulose) (HPC)) 98 % of control.
